# In patent US7879893B2, “Ligands for the HisB10 Zn2 + sites of the R-state insulin hexamer” (Novo Nordisk A/S, priority 2001, dated 2011):
# Residues, ends and D or L forms follow the SMILES beside them. *: point of attachment. X1 = O=C1NC(=O)/C(=C/c2cccc(OCC(=O)*)c2)S1; 4Abz = Nc1ccc(C(=O)O)cc1
# How the values were obtained:
# [1] = background statement, cited from earlier work
# [2] = Disappearance rate from the subcutaneous depot following subcutaneous injection in pigs (T50% of A14 Tyr(125I) insulin); format: in vivo, pig; details: Asp^B28 human insulin, s.c.
# Description: The slow release (prolonged action) properties of certain formulations of the present invention was characterized by the disappearance rate from the subcutaneous depot following subcutaneous injections in pigs. T50% is the time when 50% of the A14 Tyr(^125I) insulin has disappeared from the site of injection as measured with an external γ-counter (Ribel et al., The Pig as a Model for Subcutaneous Absorption in Man. In: M. Serrano-Rtios and P. J. Lefebre (Eds): Diabetes (1985) Proceedings of the 12th congress of the International Diabetes Federation, Madrid, Spain, 1985 (Excerpta Medica, Amsterdam (1986), 891-896). The composition of a series of protracted formulations is given in the table below together with the T50% values. The disappearance curves are illustrated in FIG. 3a-d. For comparison, the T50% for the corresponding insulin preparations formulated without the ligands would be about 2 hours.
# The induction of slow release by addition of exogenous ligands of the invention affords further advantages in terms of versatility regarding the choice of insulin species and release patterns. Consequently, human or mutant insulins such as Asp^B28, Lys^B28Pro^B29, or Gly^A21Lys^B3Glu^B29 may be formulated as slow- or dual-release preparations by adding variable amounts of His^B10Zn^2+-site ligand. […]
Compound,melting point [°C],further results
"soluble human insulin hexamer: ""inherent limitation of the absorption half-life to about 4 hours for a soluble human insulin hexamer""",–,absorption half-life ([1]; inherent limitation): about 4 hours
COc1cc(/C=C2\SC(=O)NC2=O)cc(I)c1O,256,–
COc1cc(O)cc(OC)c1/C=C1\SC(=O)NC1=O,331 to 333,–
CC(/C=C1\SC(=O)NC1=O)=C\c1ccccc1,203 to 210,–
O=C1NC(=O)/C(=C/c2ccc3cc(O)ccc3c2)S1,310 to 314,–
"N=C(N)NCCC[C@H](NC(=O)[C@H](CCCNC(=N)N)NC(=O)[C@H](CCCNC(=N)N)NC(=O)[C@H](CCCNC(=N)N)NC(=O)[C@H](CCCNC(=N)N)NC(=O)CNC(=O)CNC(=O)c1ccc(NC(=O)COc2cccc(/C=C3\SC(=O)NC3=O)c2)cc1)C(N)=O [TZD-Abz-G2R5, 4-{2-[3-(2,4-Dioxothiazolidin-5-ylidenemethyl)phenoxy]acetylamino}benzoyl-Gly2-Arg5-NH2] ({X1-4Abz}-GGRRRRR-NH2)",–,release pattern of the formulation ([2]; ligand added in concentrations lower than that of Zn2+): distinctly dual-release formulation; T50% ([2]; ligand added in slight excess of the Zn2+ concentration): about 14.8
c1cc(COc2ccc3ccccc3c2)cc(-c2nnn[nH]2)c1,200 to 202,–
"Co^3+-hexamer: ""absorption rates vary between about 1 hour (for rapid-acting insulin analogues ...) and about 4 hours (Co^3+-hexamer)""",–,absorption rate (time) after subcutaneous injection ([1]; soluble preparations): about 4 hours
CN(C)c1ccc(/C=C/C=C2\SC(=O)NC2=O)cc1,259 to 263,–

# More lines, main results first:
melting point [°C],Compound,further results
241 to 242,COc1cccc(OC)c1/C=C1\SC(=O)NC1=O,–
265 to 266,O=C1NC(=O)/C(=C/c2cc3ccccc3o2)S1,–
251 to 254,O=C1NC(=O)/C(=C/C(Cl)=C/c2ccccc2)S1,–
338 to 347,O=C1NC(=O)/C(=C/c2cc3ccccc3[nH]c2=O)S1,–
152 to 154,O=C1NC(=O)/C(=C/c2c(Cl)cccc2Cl)S1,–
330 to 333,O=C1NC(=O)C(=Cc2c[nH]c3ccc([N+](=O)[O-])cc23)S1,–
104 to 105,Cc1cccc(C)c1/C=C1\SC(=O)NC1=O,–
